Laboratory results as given in patent US20060110341A1, “Cosmetic compositions containing Sophora alopecuroides L. extracts” (Unilever Home & Personal Care USA, Division Of Conopco, Inc., priority 2004, published 2006).

Target: mushroom tyrosinase (Sigma)
Experiment: Tyrosinase inhibition assay
Type: biochemical
Details: for IC50: 0.5 mM tyrosine, pH 7.00, tyrosinase 60.5 U/mL, read-out: IC50 tyrosinase inhibition activity: components
Description: Determination of melanin content within each MelanoDerm was performed by absorbance measurement at 475 nm. IC50 was determined by Tyrosinase inhibition assay. […] The reaction rate in the first 6.5 min is calculated based on the absorbance change at 475 nm.

| Molecule | IC50 | tyrosinase inhibition activity (in words) | IC50 tyrosinase inhibition activity, in brackets by weight (same value as the μM figure) |
| --- | --- | --- | --- |
| C=C(C)C(CC=C(C)C)Cc1c2c(c(O)c3c1OC(c1ccc(O)cc1)C3c1cc(O)cc(O)c1)C(=O)CC(c1ccc(O)cc1O)O2 (stereo not drawn) [Alopecurone A] | 9 µM | showing tyrosinase inhibition activity | – |
| Oc1ccc(O)cc1 [Hydroquinone, reference compound] | 36.4 µM | – | (4 micro-q/ml) micro-g/ml |
| C=C(C)C(CC=C(C)C)Cc1c2c(c(O)c3c1OC(c1ccc(O)cc1)C3c1cc(O)cc(O)c1)C(=O)CC(c1ccc(O)cc1O)O2 (stereo not drawn) [Alopecurone B] | 5 µM | showing tyrosinase inhibition activity | – |

Results, then the molecule that gave them:

| IC50 | tyrosinase inhibition activity (in words) | IC50 tyrosinase inhibition activity, in brackets by weight (same value as the μM figure) | Molecule |
| --- | --- | --- | --- |
| 1 µM | – | – | Sophoraflavone K |
| 14 µM | – | – | C=C(C)[C@H](CC=C(C)C)Cc1c(O)cc(O)c2c1O[C@H](c1ccc(O)cc1O)CC2=O [Sophoraflavone G] |
| 15 µM | – | – | Sophoraflavone I |
